According to US6589953B2, “Indole derivatives as 5-HT1B and 5-HT1D agonists” (Pierre Fabre Medicament, priority 1997, dated 2003):

Compound | melting point
Cl.NCCc1c[nH]c2ccc(OCC(=O)N3CCN(c4ccc(-c5nn[nH]n5)cc4)CC3)cc12 | 225 to 227 °C
NCCc1c[nH]c2ccc(OCC(=O)N3CCN(c4ccc(-c5cccs5)cc4)CC3)cc12.O=C(O)/C=C/C(=O)O | 154 to 156 °C
Cl.Cl.NCCc1c[nH]c2ccc(OCC(=O)N3CCN(c4ccc(-c5ncco5)cc4)CC3)cc12 | 64 to 66 °C (dec.)
NCCc1c[nH]c2ccc(OCC(=O)N3CCN(c4ccc(-c5ccncc5)cc4)CC3)cc12.O=C(O)/C=C/C(=O)O | 176 °C
Cc1ccc(-c2nnc(-c3ccc(N4CCN(C(=O)COc5ccc6[nH]cc(CCN)c6c5)CC4)cc3)o2)cc1.O=C(O)/C=C/C(=O)O | 135 °C
Cc1ccccc1-c1nnc(-c2ccc(N3CCN(C(=O)COc4ccc5[nH]cc(CCN)c5c4)CC3)cc2)o1.O=C(O)/C=C/C(=O)O | 123 °C
NCCc1c[nH]c2ccc(OCC(=O)N3CCN(c4ccc(-c5nnc(-c6ccccc6)o5)cc4)CC3)cc12.O=C(O)/C=C/C(=O)O | 170 °C
NCCc1c[nH]c2ccc(OCC(=O)N3CCN(c4ccc(-c5nc6ccccc6s5)cc4)CC3)cc12.O=C(O)/C=C/C(=O)O | 156 to 160 °C
NCCc1c[nH]c2ccc(OCC(=O)N3CCN(c4ccc(C5=NCCO5)cc4)CC3)cc12.O=C(O)/C=C/C(=O)O | 170 °C
